Experimental data reported in PubChem BioAssay AID2060606 (Molecular Pharmacology Branch, DTP, NCI, 2025).

Tested on: 922993-354-T-J3-PDC complex spheroids, viability, % test/control
Assay: Anticancer human tumor 922993-354-T-J3-PDC patient-derived endometrial carcinoma cell line growth inhibition [CLK]
Details: for IC50: curve of first compound; for viability, T/C: stronger effect = lower value
Outline: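 Multi-cell-type spheroids combined patient-derived tumor cells with HUVEC endothelial cells and human mesenchymal stem cells. Paired agents were dosed in half-log steps down from about clinical Cmax, or from 10 microM where Cmax was unknown.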
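Further: spheroids exposed to the agents for 7 days before readout.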

Compound: CC1COCCN1c1cc(C2(S(C)(=N)=O)CC2)nc(-c2ccnc3[nH]ccc23)n1 (centres undefined) + CN1CCN(c2cc(C(=O)Nc3cc4cc(-c5cnn(C)c5)ccc4cn3)ccn2)CC1
- IC50 (second compound 0.0316 µM): > 10000 nM
- IC50 (second compound 0.1 µM): > 10000 nM
- IC50 (second compound 0.316 µM): < 31.6 nM
- IC50 (second compound 1 µM): < 31.6 nM
- IC50 (second compound 3.16 µM): < 31.6 nM
- IC50 (second compound 10 µM): < 31.6 nM
- viability, T/C (second compound 0.0316 µM, first compound 0.0316 µM): 122%
- viability, T/C (second compound 0.0316 µM, first compound 0.1 µM): 119%
- viability, T/C (second compound 0.0316 µM, first compound 0.316 µM): 119%
- viability, T/C (second compound 0.0316 µM, first compound 1 µM): 120%
- viability, T/C (second compound 0.0316 µM, first compound 3.16 µM): 117%
- viability, T/C (second compound 0.0316 µM, first compound 10 µM): 76.3%
- viability, T/C (second compound 0.1 µM, first compound 0.0316 µM): 90.6%
- viability, T/C (second compound 0.1 µM, first compound 0.1 µM): 111%
- viability, T/C (second compound 0.1 µM, first compound 0.316 µM): 111%
- viability, T/C (second compound 0.1 µM, first compound 1 µM): 94.6%
- viability, T/C (second compound 0.1 µM, first compound 3.16 µM): 104%
- viability, T/C (second compound 0.1 µM, first compound 10 µM): 60.7%
- viability, T/C (second compound 0.316 µM, first compound 0.0316 µM): 38.1%
- viability, T/C (second compound 0.316 µM, first compound 0.1 µM): 45.2%
- viability, T/C (second compound 0.316 µM, first compound 0.316 µM): 35.9%
- viability, T/C (second compound 0.316 µM, first compound 1 µM): 36.2%
- viability, T/C (second compound 0.316 µM, first compound 3.16 µM): 27.9%
- viability, T/C (second compound 0.316 µM, first compound 10 µM): 13.3%
- viability, T/C (second compound 1 µM, first compound 0.0316 µM): 0.12%
- viability, T/C (second compound 1 µM, first compound 0.1 µM): 0.14%
- viability, T/C (second compound 1 µM, first compound 0.316 µM): 1.67%
- viability, T/C (second compound 1 µM, first compound 1 µM): 0.14%
- viability, T/C (second compound 1 µM, first compound 3.16 µM): 0.12%
- viability, T/C (second compound 1 µM, first compound 10 µM): 0.08%
- viability, T/C (second compound 3.16 µM, first compound 0.0316 µM): 0.13%
- viability, T/C (second compound 3.16 µM, first compound 0.1 µM): 0.13%
- viability, T/C (second compound 3.16 µM, first compound 0.316 µM): 0.16%
- viability, T/C (second compound 3.16 µM, first compound 1 µM): 0.94%
- viability, T/C (second compound 3.16 µM, first compound 3.16 µM): 1.11%
- viability, T/C (second compound 3.16 µM, first compound 10 µM): 0.87%
- viability, T/C (second compound 10 µM, first compound 0.0316 µM): 0.78%
- viability, T/C (second compound 10 µM, first compound 0.1 µM): 0.17%
- viability, T/C (second compound 10 µM, first compound 0.316 µM): 1.4%
- viability, T/C (second compound 10 µM, first compound 1 µM): 0.2%
- viability, T/C (second compound 10 µM, first compound 3.16 µM): 0.94%
- viability, T/C (second compound 10 µM, first compound 10 µM): 1.78%

Compound: NC(=O)C(=Cn1cnc(-c2cc(C(F)(F)F)cc(C(F)(F)F)c2)n1)c1cncnc1 + CN1CCN(c2cc(C(=O)Nc3cc4cc(-c5cnn(C)c5)ccc4cn3)ccn2)CC1
- IC50 (second compound 0.0316 µM): 229 nM
- IC50 (second compound 0.1 µM): 173 nM
- IC50 (second compound 0.316 µM): < 9.49 nM
- IC50 (second compound 1 µM): < 9.49 nM
- IC50 (second compound 3.16 µM): < 9.49 nM
- IC50 (second compound 10 µM): < 9.49 nM
- viability, T/C (second compound 0.0316 µM, first compound 0.00949 µM): 119%
- viability, T/C (second compound 0.0316 µM, first compound 0.03 µM): 115%
- viability, T/C (second compound 0.0316 µM, first compound 0.0949 µM): 82.1%
- viability, T/C (second compound 0.0316 µM, first compound 0.3 µM): 40.1%
- viability, T/C (second compound 0.0316 µM, first compound 0.949 µM): 30.6%
- viability, T/C (second compound 0.0316 µM, first compound 3 µM): 41.2%
- viability, T/C (second compound 0.1 µM, first compound 0.00949 µM): 118%
- viability, T/C (second compound 0.1 µM, first compound 0.03 µM): 118%
- viability, T/C (second compound 0.1 µM, first compound 0.0949 µM): 80.7%
- viability, T/C (second compound 0.1 µM, first compound 0.3 µM): 21.7%
- viability, T/C (second compound 0.1 µM, first compound 0.949 µM): 21.5%
- viability, T/C (second compound 0.1 µM, first compound 3 µM): 20%
- viability, T/C (second compound 0.316 µM, first compound 0.00949 µM): 48.8%
- viability, T/C (second compound 0.316 µM, first compound 0.03 µM): 32.3%
- viability, T/C (second compound 0.316 µM, first compound 0.0949 µM): 4.78%
- viability, T/C (second compound 0.316 µM, first compound 0.3 µM): 1.32%
- viability, T/C (second compound 0.316 µM, first compound 0.949 µM): 0.16%
- viability, T/C (second compound 0.316 µM, first compound 3 µM): 1.43%
- viability, T/C (second compound 1 µM, first compound 0.00949 µM): 0.11%
- viability, T/C (second compound 1 µM, first compound 0.03 µM): 0.75%
- viability, T/C (second compound 1 µM, first compound 0.0949 µM): 0.12%
- viability, T/C (second compound 1 µM, first compound 0.3 µM): 0.07%
- viability, T/C (second compound 1 µM, first compound 0.949 µM): 0.71%
- viability, T/C (second compound 1 µM, first compound 3 µM): 2.13%
- viability, T/C (second compound 3.16 µM, first compound 0.00949 µM): 0.1%
- viability, T/C (second compound 3.16 µM, first compound 0.03 µM): 0.13%
- viability, T/C (second compound 3.16 µM, first compound 0.0949 µM): 0.17%
- viability, T/C (second compound 3.16 µM, first compound 0.3 µM): 1.63%
- viability, T/C (second compound 3.16 µM, first compound 0.949 µM): 1.45%
- viability, T/C (second compound 3.16 µM, first compound 3 µM): 2.46%
- viability, T/C (second compound 10 µM, first compound 0.00949 µM): 0.14%
- viability, T/C (second compound 10 µM, first compound 0.03 µM): 0.16%
- viability, T/C (second compound 10 µM, first compound 0.0949 µM): 1.88%
- viability, T/C (second compound 10 µM, first compound 0.3 µM): 0.19%
- viability, T/C (second compound 10 µM, first compound 0.949 µM): 0.8%
- viability, T/C (second compound 10 µM, first compound 3 µM): 2.01%
